Measured values as given in US20230233500A1, “Gasdermin D (GSDMD) Succination for the Treatment of Inflammatory Disease” (University of Massachusetts, priority 2020, published 2023).
Entries after “also recorded” stand apart in the source; their conditions may differ. Where a name gives a salt, the structure may show the parent alone.

Assays:
GSDMD = molecular target: T1, GSDMD (Mus musculus, UniProt Q9D8T2); assay: MMF-Yne click chemistry labeling and streptavidin pulldown in BMDM lysates; type: binding
T1 construct: We also immunoprecipitated GSDMD from fumarate treated BMDMs; endogenous in cells; host or cells: primary mouse BMDMs
T1 sequence (Q9D8T2 1-487): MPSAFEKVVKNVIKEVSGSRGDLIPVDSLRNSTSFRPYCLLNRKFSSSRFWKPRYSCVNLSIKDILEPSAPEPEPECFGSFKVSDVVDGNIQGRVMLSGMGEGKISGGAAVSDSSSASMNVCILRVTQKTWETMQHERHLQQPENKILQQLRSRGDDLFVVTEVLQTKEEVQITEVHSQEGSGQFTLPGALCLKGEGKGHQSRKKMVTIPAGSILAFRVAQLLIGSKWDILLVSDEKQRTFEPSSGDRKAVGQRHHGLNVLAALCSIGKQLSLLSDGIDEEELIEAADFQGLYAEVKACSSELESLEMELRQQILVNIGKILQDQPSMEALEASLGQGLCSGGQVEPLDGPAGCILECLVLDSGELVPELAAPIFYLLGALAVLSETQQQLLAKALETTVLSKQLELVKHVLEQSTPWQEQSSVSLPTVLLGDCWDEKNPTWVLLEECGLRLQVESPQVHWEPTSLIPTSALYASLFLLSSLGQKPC
Procedure: FIG. 10. Illustrative schematic of click-chemistry based proteomics. Schematic representation of MMF-Yne proteomics. Primary WT BMDMs were treated with LPS for 2 hrs, MMF-Yne for 1 hour and nigericin (10 μM) for 1 hour. Lysates were subsequently Cu2+ clicked using a biotin-azide and streptavidin beads for pulldown of MMF-Yne interacting proteins. Streptavidin beads were digested using trypsin, reduced and alkylated and subjected to mass spec analysis.
Cells treated with or without the MMF-Alkyne probe were lysed and quantified by protein DC assay. Proteome samples (2 mg/ml) were incubated with TCEP, TBTA ligand, copper sulphate and Biotin Azide for 1 hour at room temperature with vortexing every 15 minutes. Precipitated proteins were centrifuged for 5 minutes at 4,600 g. Protein pellets were washed twice with ice cold methanol and sonicated in 1.2% SDS. Samples were heated at 95° C. for 5 minutes and diluted to a final volume of […] with PBS (0.2% SDS). An aliquot of the post-clicked lysate was retained and the remainder was incubated with streptavidin beads on a rotator overnight at 4 C. Samples were rotated at room temperature for 2 hours to resolubilize the SDS. Beads were washed five times with 0.2% SDS/PBS and placed on a rotator for 10 minutes in between washes. Beads were washed with ultra-pure water a further 3 times. […]

h.GSDMD = molecular target: T2, h.GSDMD (Homo sapiens, UniProt P57764); assay: In vitro succination reaction with LC-MS/MS peptide mapping; type: binding; conditions: recombinant h.GSDMD
T2 sequence (P57764 1-484): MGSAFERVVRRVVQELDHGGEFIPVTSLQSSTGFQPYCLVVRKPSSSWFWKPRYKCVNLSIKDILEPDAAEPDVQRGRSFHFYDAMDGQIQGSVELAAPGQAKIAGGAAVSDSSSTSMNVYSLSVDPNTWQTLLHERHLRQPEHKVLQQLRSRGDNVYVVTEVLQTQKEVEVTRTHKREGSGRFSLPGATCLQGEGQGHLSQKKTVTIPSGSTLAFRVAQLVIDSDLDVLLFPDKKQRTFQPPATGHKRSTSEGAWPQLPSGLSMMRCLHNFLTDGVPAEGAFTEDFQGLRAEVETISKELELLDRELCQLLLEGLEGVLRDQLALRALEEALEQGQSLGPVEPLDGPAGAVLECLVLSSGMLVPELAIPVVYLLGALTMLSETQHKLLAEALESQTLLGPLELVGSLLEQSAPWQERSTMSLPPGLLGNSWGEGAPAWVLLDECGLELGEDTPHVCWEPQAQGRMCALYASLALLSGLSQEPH

[1] = tested on: GSDMD-deficient THP1 cells; assay: Kinetic cell death in GSDMD-/- THP1 cells; type: cell-based, human
Excerpt: FIGS. 3A-J. Fumarate targets GSDMD and Gasdermin E (GSDME). Kinetic cell death of WT and Gsdmd-BMDMs (A) or WT/GSDMD^-/- THP1 cells (B) treated as indicated. LDH and IL-1β release from WT and Gsdmd^-/- BMDMs (C-D). Immunoblot of GSDMD and GSDME in native and reduced cell lysates from BMDMs (E). Immunoblot of GSDME in streptavidin pulldown from clicked lysates (F). Representative Mass spectra of succinated GSDME (G-H). Immunoblot analysis of GSDMD and GSDME from WT and […]^-/- BMDMs (I). A, B representative of three independent experiments. C, D, I pooled data from three independent experiments. E, F, J representative images from 3 independent experiments. ***, P<0.0001, […] (Two-way ANOVA). Error bars show means±SEM. Cells were plated, treated and incubated in phenol red free medium. Following treatment medium was collected and assessed for LDH release using the CytoTox96 non-radioactive cytotoxicity assay (Promega) as per manufacturer's instructions. Kinetic cell death assays were performed using SytoxOrange and the Biotek Cytation5.

EAE in WT mice = assay: Experimental autoimmune encephalomyelitis (EAE); type: in vivo, mouse
[2] = flow cytometry, spinal cord and brain

COC(=O)/C=C/C(=O)OC [Fumarate, Dimethyl fumarate]
MMF-Yne labeling of GSDMD in presence of competitor (GSDMD; streptavidin pulldown from clicked lysates): blocked
MMF-Yne signal in pyroptotic lysates in presence of unlabeled competitor (GSDMD; streptavidin-IR dye immunoblot): reduced
In vitro cysteine succination sites (h.GSDMD): same cysteines
In vitro cysteine succination sites (h.GSDMD; listed as DMF): Cys309; also recorded: Cys467; also recorded: Cys56; also recorded: Cys191; also recorded: Cys268
cell death [1]: inhibited cell death
onset of EAE (clinical scores) (EAE in WT mice; WT mice, fumarate daily after EAE induction): blocked
Th1 (IFN-γ+) cells in the CNS (EAE in WT mice; flow cytometry): reduced
Th17 (IL-17A+) cells in the CNS (EAE in WT mice; flow cytometry): reduced
infiltration of CD4+ T-cells to the CNS (EAE in WT mice; [2]): reduced infiltration
infiltration of CD8+ T-cells to the CNS (EAE in WT mice; [2]): reduced infiltration
infiltration of myeloid cells to the CNS (EAE in WT mice; [2]): reduced infiltration
neuropathology (EAE in WT mice; spinal cord sections): reduced
demyelination (EAE in WT mice; spinal cord sections, LFB): reduced
GSDMD-N in CNS tissue (EAE in WT mice; spinal cord, staining and immunoblot): reduced
